The values below come from patent US20240392302A1, “METHOD FOR DETECTING AND QUANTIFYING RNA” (FLUORESCENCE DIAGNOSIS (SHANGHAI) BIOTECH COMPANY LTD., priority 2021, published 2024).

For this data set, the system named is F30-N16-1 RNA aptamer molecules. In words: Binding of F30-N16-1 RNA aptamer molecules with different fluorescent molecules (fluorescence spectrum, activation multiple). The format is biochemical. Conditions: for Maximum emission peak (nm) / Maximum excitation peak (nm): complex with F30-N16-1; for Activation Multiple: fluorophore with F30-N16-1. The protocol: Nucleic acid aptamer molecules of N16 or N16 mutants were prepared by using the commonly-used experimental method (I), 2.5 μM of nucleic acid aptamer molecules and 0.5 μM of fluorophore molecules were incubated in a detection buffer (40 mM of HEPES, pH 7.4, 125 mM of KCl, 5 mM of MgCl2, 5% DMSO), and the maximum excitation peak and the maximum emission peak of the fluorescence of the nucleic acid aptamer-fluorophore molecular complex were detected with Synergy Neo2 multifunctional enzyme-labeler. Synergy Neo2 multifunctional enzyme-labeler was used again to detect fluorescence intensity of the nucleic acid aptamer-fluorophore molecular complex under its maximum excitation and emission conditions, the control sample ([…] of fluorophore molecules without nucleic acid aptamer) was also measured under the same conditions, and the ratio of fluorescence intensity was calculated. For example, as for fluorescence of the complex formed by 2.5 μM of N16-1 nucleic acid aptamer and 0.5 μM of I-5-14 fluorophore molecules, the maximum excitation peak is 512 nm and the maximum emission peak is 574 nm. It was detected by the Synergy Neo2 multifunctional enzyme-labeler that the fluorescence intensity of the complex at an excitation condition of 512±10 nm and an emission condition of 574 nm±10 nm was 49,088, while the fluorescence intensity of the control (0.5 μM of I-5-14 fluorophore molecules) under the same detection conditions was 399, so the activation multiple of N16-1 nucleic acid aptamer to I-5-14 fluorophore molecules was 123.
F30-N16-1 RNA aptamer molecules were prepared by using the commonly-used experimental method (I), and were used for detecting basic properties, including fluorescence spectrum and fluorescence activation multiple, of the binding of I-5-14 analogues with N16.

Turning to `CN1C(=O)/C(=C/c2ccc3c(c2)CCCN3C)NC1=S` [I-5-40], the “Maximum emission peak (nm)” value was 548 nm, the “Maximum excitation peak (nm)” value is 473 nm and the “Activation Multiple” value came out at 8.

Take `CC1(C)c2cc(/C=C3\SC(=S)NC3=O)ccc2-c2ccc(N(CCO)CCO)cc21` [I-5-73]: the “Maximum emission peak (nm)” value is 731 nm, the “Maximum excitation peak (nm)” value is 681 nm and the “Activation Multiple” value is reported as 12.

Regarding `CN1CCOc2cc(/C=C3\SC(=S)NC3=O)ccc21` [I-5-37], the “Maximum emission peak (nm)” value turned out to be 603 nm, the “Maximum excitation peak (nm)” value was 497 nm and the “Activation Multiple” value amounted to 256.

As to `CN(C)c1ccc(/C=C2\NC(=S)NC2=O)s1` [I-5-12], the “Maximum emission peak (nm)” value is 555 nm, the “Maximum excitation peak (nm)” value was 535 nm and the “Activation Multiple” value came to 11.

As to `CN(CCO)c1ccc2cc(/C=C3\SC(=S)NC3=O)sc2c1` [I-5-64], the “Maximum emission peak (nm)” value was 665 nm, the “Maximum excitation peak (nm)” value is reported as 522 nm and the “Activation Multiple” value stood at 12.

For the molecule `CC1=CC(C)(C)N(C)c2ccc(/C=C3\SC(=S)NC3=O)cc21` [I-5-41], the “Maximum emission peak (nm)” value was found to be 612 nm, the “Maximum excitation peak (nm)” value was found to be 517 nm and the “Activation Multiple” value is 85.

Turning to `CN(C)c1ccc(/C=C2\SC(=O)NC2=S)s1` [I-5-8], the “Maximum emission peak (nm)” value stood at 582 nm, the “Maximum excitation peak (nm)” value is given as 554 nm and the “Activation Multiple” value is reported as 15.

On to `CN1C(=O)O/C(=C\c2ccc(N(C)C)s2)C1=O` [I-5-7], for which the “Maximum emission peak (nm)” value is 504 nm, the “Maximum excitation peak (nm)” value worked out at 465 nm and the “Activation Multiple” value was determined as 24.

Take `CCN1C(=O)S/C(=C\c2ccc(N(C)CCO)s2)C1=O` [I-5-5]: the “Maximum emission peak (nm)” value is reported as 518 nm, the “Maximum excitation peak (nm)” value is 487 nm and the “Activation Multiple” value is recorded as 11.

As for `CN(CCO)c1ccc(/C=C2\SC(=O)NC2=O)cc1` [I-5-17], the “Maximum emission peak (nm)” value was 506 nm, the “Maximum excitation peak (nm)” value is reported as 445 nm and the “Activation Multiple” value is reported as 105.

In the case of `CN(CCO)c1ccc(-c2ccc(/C=C3\SC(=O)NC3=O)s2)s1` [I-5-62], the “Maximum emission peak (nm)” value was found to be 689 nm, the “Maximum excitation peak (nm)” value worked out at 529 nm and the “Activation Multiple” value was 256.

On to `CN1CCOc2cc(/C=C3\SC(=O)NC3=S)ccc21` [I-5-36], for which the “Maximum emission peak (nm)” value stood at 625 nm, the “Maximum excitation peak (nm)” value turned out to be 517 nm and the “Activation Multiple” value is given as 9.

For the molecule `CN1CCOc2cc(/C=C3\SC(=S)N(CCC(=O)O)C3=S)ccc21` [I-5-38], the “Maximum emission peak (nm)” value amounted to 647 nm, the “Maximum excitation peak (nm)” value amounted to 545 nm and the “Activation Multiple” value was determined as 7.

On to `CCN1C(=O)/C(=C/c2ccc3c(c2)SCCN3C)NC1=S` [I-5-35], for which the “Maximum emission peak (nm)” value amounted to 585 nm, the “Maximum excitation peak (nm)” value came to 487 nm and the “Activation Multiple” value came out at 10.

For the molecule `CN1C(=O)/C(=C/c2cc3c(s2)-c2ccc(N(CCO)CCO)cc2C3(C)C)SC1=S` [I-5-80], the “Maximum emission peak (nm)” value is listed as 743 nm, the “Maximum excitation peak (nm)” value turned out to be 686 nm and the “Activation Multiple” value amounted to 7.

Turning to `O=C1NC(=S)S/C1=C\c1cc2c3c(c1)CCCN3CCC2` [I-5-47], the “Maximum emission peak (nm)” value came to 607 nm, the “Maximum excitation peak (nm)” value is listed as 529 nm and the “Activation Multiple” value was 245.

Turning to `CN(CCO)c1ccc(/C=C2\SC(=S)NC2=S)s1` [I-5-4], the “Maximum emission peak (nm)” value is listed as 638 nm, the “Maximum excitation peak (nm)” value turned out to be 625 nm and the “Activation Multiple” value is 47.

`CN(CCO)c1ccc2c(c1)C(C)(C)c1cc(/C=C3\NC(=S)NC3=O)ccc1-2` [I-5-76]: the “Maximum emission peak (nm)” value was 774 nm, the “Maximum excitation peak (nm)” value was 724 nm and the “Activation Multiple” value is given as 9.

For `CN(C)c1ccc2cc(/C=C3\NC(=S)NC3=O)sc2c1` [I-5-67], the “Maximum emission peak (nm)” value was found to be 652 nm, the “Maximum excitation peak (nm)” value was 516 nm and the “Activation Multiple” value was 7.

As to `CN(C)c1ccc(/C=C2\SC(=S)NC2=S)s1` [I-5-10], the “Maximum emission peak (nm)” value worked out at 642 nm, the “Maximum excitation peak (nm)” value was 626 nm and the “Activation Multiple” value came out at 11.

Consider `CN(CCO)c1ccc(/C=C2\OC(=O)N(CCC(=O)O)C2=O)c(F)c1` [I-5-25], for which the “Maximum emission peak (nm)” value amounted to 502 nm, the “Maximum excitation peak (nm)” value came to 403 nm and the “Activation Multiple” value is listed as 6.

For the molecule `CN1C(=O)/C(=C/c2cc3ccc(N(CCO)CCO)cc3s2)SC1=S` [I-5-68], the “Maximum emission peak (nm)” value stood at 663 nm, the “Maximum excitation peak (nm)” value stood at 536 nm and the “Activation Multiple” value is 9.

Turning to `CN1C(=O)/C(=C/c2ccc(N(C)CCO)cc2)NC1=S` [I-5-18], the “Maximum emission peak (nm)” value is 545 nm, the “Maximum excitation peak (nm)” value was found to be 473 nm and the “Activation Multiple” value worked out at 57.

On to `CN1C(=O)/C(=C/c2cc3sc(N(CCO)CCO)cc3s2)SC1=S` [I-5-59], for which the “Maximum emission peak (nm)” value stood at 655 nm, the “Maximum excitation peak (nm)” value is listed as 581 nm and the “Activation Multiple” value was 12.

`CN(C)c1ccc(/C=C2\OC(=O)N(N)C2=O)cc1` [I-5-19]: the “Maximum emission peak (nm)” value was determined as 499 nm, the “Maximum excitation peak (nm)” value was determined as 397 nm and the “Activation Multiple” value is 18.

With `CN(CCO)c1ccc(/C=C2\SC(=S)N(N)C2=S)cc1` [I-5-16], the “Maximum emission peak (nm)” value was 648 nm, the “Maximum excitation peak (nm)” value was determined as 615 nm and the “Activation Multiple” value came to 11.

For the molecule `CN(CCO)c1cc2sc(/C=C3\SC(=S)NC3=S)cc2s1` [I-5-58], the “Maximum emission peak (nm)” value is reported as 725 nm, the “Maximum excitation peak (nm)” value came out at 692 nm and the “Activation Multiple” value is given as 1422.

Regarding `O=C1NC(=O)/C(=C/c2cc3c4c(c2)CCCN4CCC3)S1` [I-5-49], the “Maximum emission peak (nm)” value was 539 nm, the “Maximum excitation peak (nm)” value was 469 nm and the “Activation Multiple” value is 1025.

In the case of `CN(C)c1ccc(/C=C2\SC(=O)NC2=O)cc1` [I-5-23], the “Maximum emission peak (nm)” value is 515 nm, the “Maximum excitation peak (nm)” value was determined as 433 nm and the “Activation Multiple” value turned out to be 156.

Consider `CN(C)c1cc2sc(/C=C3\SC(=S)NC3=S)cc2s1` [I-5-52], for which the “Maximum emission peak (nm)” value was 725 nm, the “Maximum excitation peak (nm)” value worked out at 686 nm and the “Activation Multiple” value was found to be 7.

Regarding `CN(CCO)c1ccc(/C=C2\OC(=O)NC2=O)s1` [I-5-1], the “Maximum emission peak (nm)” value is 500 nm, the “Maximum excitation peak (nm)” value turned out to be 460 nm and the “Activation Multiple” value worked out at 14.

With `Cc1cc(N(C)CCNC(=O)CCOCCOCCO)ccc1/C=C1\SC(=O)NC1=S` [I-5-27], the “Maximum emission peak (nm)” value is 603 nm, the “Maximum excitation peak (nm)” value turned out to be 565 nm and the “Activation Multiple” value is on record as 11.

Take `CN(C)c1ccc(/C=C2\NC(=S)NC2=O)cc1` [I-5-24]: the “Maximum emission peak (nm)” value is recorded as 543 nm, the “Maximum excitation peak (nm)” value came out at 473 nm and the “Activation Multiple” value was 7.
